Data on five compounds can be found in US12098433B2 (priority 2018, dated 2024).

The test system of experiment [1] is atzR (via atzABC conversion of atrazine to cyanuric acid). It counts as biochemical, E. coli extracts; Pseudomonas ADP-1 pathway. As to conditions: for time at which ON is distinguished from OFF (kinetic divergence): 100 μM atrazine; for sensor response to triazines (specificity): FIG. 19C.
In experiment [2] the test system is unregulated cell-free protein synthesis reaction (cell-free transcription and translation). It counts as biochemical, E. coli.
Experiment [3] deals with atzR (via atzABC conversion of atrazine to cyanuric acid). Description: Colorimetric atrazine sensor (C23O reporter), freeze-dried reactions. Type of experiment: biochemical, E. coli extracts; Pseudomonas ADP-1 pathway.
Experiment [4] concerns AtzR transcription factor. Description: Cell-free cyanuric acid sensor: AtzR-regulated sfGFP reporter. It counts as biochemical, Pseudomonas sp. ADP-1. As to conditions: for fold-induction of sfGFP: 100 μM.
The test system of experiment [5] is AtzR transcription factor. Nature of the experiment: Cell-free cyanuric acid sensor with colorimetric catechol 2,3-dioxygenase reporter. It counts as biochemical, Pseudomonas sp. ADP-1. As to conditions: 600 μM CYA in ON state; tubes with catechol at 30° C. As to the method:
FIG. 18. Proof-of-concept for field-deployable cyanuric acid sensing using a cell-free biosensor. (a) Optimized cell-free reactions are prepared without cyanuric acid (CYA), freeze-dried, and then rehydrated with unfiltered environmental water samples. (b) CYA in environmental water samples can be detected from freeze-dried cell-free reactions. […] (c) Time course comparisons of the OFF state from panel B, for the unfiltered environmental water samples that were not spiked with CYA. Pool water can be distinguished against lake water in less than one hour. […] CYA was added at a concentration of 600 μM in the ON state to a fresh cell-free reaction incubated at 30° C. and monitored for 90 minutes. […] Fluorescence in b and c is reported standardized to mean equivalent fluorescence (MEF) of fluorescein isothiocyanate based on a previously developed standard.
Finally, we aimed to validate if a visible output signal for the sensor could be generated without a plate reader to enable equipment-free detection of CYA from environmental samples. […] Because fluorescence of sfGFP is difficult to detect by the unaided eye, particularly in the early stages of the reaction, we replaced the coding sequence of the reporter plasmid instead with the enzyme catechol 2,3-dioxygenase (C23DO). […]

In experiment [6] the test system is NarX / NarL two-component system. As to conditions: colorimetric C32O reporter.
Experiment [7] shares this test system.

“Also recorded” adds a separate entry of the source. Where two headings read alike, the source gives them in different places.

Regarding `CCNc1nc(Cl)nc(NC(C)C)n1` [atrazine], in experiment [1], the “calculated limit of detection above background” value is recorded as “approximately 20 μM” and the “sensor response to triazines (specificity)” value (“sensor response to triazines” below) was “capable of detecting”. Further, the “time at which ON is distinguished from OFF (kinetic divergence)” value in experiment [1] (optimized sensor) is reported as “approximately one hour”. For the same compound, the “time at which ON is distinguished from OFF (kinetic divergence)” value in experiment [1] (optimized sensor, listed as Atrazine) was “within one hour”. Moreover, the detection by sensor result in experiment [1] (doped at 100 μM, all enriched extracts plus blank extract) was “could detect”. In experiment [1] (optimized sensor, dose-response curve FIG. 22E), the “overall limit of detection (figure legend)” value is reported as “around 20”. Moreover, the EC50 in experiment [1] (read-out: half-maximal signal) is approximately 66 µM. For the same compound, the “poisoning / inhibitory effect on cell-free protein synthesis (sfGFP)” value in experiment [2] (100 μM) was “Minimal poisoning”. In experiment [3] (100 nM atrazine, three replicates, four-hour limit), the reactions changing color entry is “one of the three reactions”. Also, the “limit of detection for the enzymatic reporter” value in experiment [3] (freeze-dried, all three replicates turned on within four-hour limit) stood at 1.

Take `O=c1[nH]c(=O)[nH]c(=O)[nH]1` [cyanuric acid]: in experiment [1], the “sensor response to triazines” value was “capable of detecting”. Moreover, the “fold-induction of sfGFP” value is given as more than 12 fold in experiment [4] (optimal 1 nM AtzR plasmid and 10 nM reporter plasmid, 4-hour incubation); approximately 8 fold in experiment [4] (reporter based on Promoter P2 (E. coli consensus −10 site), promoter screen). In addition, in experiment [4] (optimal plasmid concentrations), the “linear operating range of dose-response” value is 0 to 100 µM. Besides, in experiment [5], the “time to production of yellow color (reporter activation)” value is not above 1 h.

Consider `Nc1nc(N)nc(N)n1` [melamine], for which the “sensor response to triazines” value in experiment [1] is recorded as “unreactive”. In experiment [2] (100 μM), the “poisoning / inhibitory effect on cell-free protein synthesis (sfGFP)” value is “Minimal poisoning”.

Turning to `O=[N+]([O-])O` [nitrate], the “lowest concentration detected, visible by naked eye” value in experiment [6] is 10 µM. Also, the sensor activation result in experiment [7] (1 mM nitrate, absence of supplemental NarX) is reported as “activated”. Besides, the detection by sensor entry in experiment [7] (1 mM nitrate, certain ratios of NarX- and NarL-enriched extracts) was “robust detection”. For the same compound, the “sensitivity of cell-free system” value in experiment [7] (optimal conditions, sfGFP reporter) is recorded as “more sensitive than the environmental limit”.

Turning to `CC(C)Nc1nc(Cl)nc(NC(C)C)n1` [propazine], in experiment [1], the “sensor response to triazines” value was “weak activation; also recorded: capable of detecting”. Further, the “poisoning / inhibitory effect on cell-free protein synthesis (sfGFP)” value in experiment [2] is listed as “Minimal poisoning”.
